Test results as given in patent US20150080438A1, “6,7-Dihydro-5H-benzo[7]annulene derivatives, processes for their preparation, pharmaceutical products comprising them and their use for preparing medicaments” (Bayer Intellectual Property GmbH, priority 2011, published 2015).
pIC50: −log10 of the molar value.

These molecules were tested against T1, oestrogen receptor (ER) (Homo sapiens, UniProt P03372) (assay: Anti-oestrogenic action in MVLN cells (inhibition of estradiol-induced luciferase, transactivation antagonism)). Conditions: inhibition of estradiol-induced luciferase activity, read-out: Anti-oestrogenic action in vitro: MVLN transactivation antagonism IC50.
T1 construct: These MVLN cells express, along with the functional oestrogen receptor (ER), a reporter construct; endogenous in cells; host or cells: MVLN cells (MCF7 derivative with ER-responsive luciferase reporter)
T1 sequence (P03372 1-595): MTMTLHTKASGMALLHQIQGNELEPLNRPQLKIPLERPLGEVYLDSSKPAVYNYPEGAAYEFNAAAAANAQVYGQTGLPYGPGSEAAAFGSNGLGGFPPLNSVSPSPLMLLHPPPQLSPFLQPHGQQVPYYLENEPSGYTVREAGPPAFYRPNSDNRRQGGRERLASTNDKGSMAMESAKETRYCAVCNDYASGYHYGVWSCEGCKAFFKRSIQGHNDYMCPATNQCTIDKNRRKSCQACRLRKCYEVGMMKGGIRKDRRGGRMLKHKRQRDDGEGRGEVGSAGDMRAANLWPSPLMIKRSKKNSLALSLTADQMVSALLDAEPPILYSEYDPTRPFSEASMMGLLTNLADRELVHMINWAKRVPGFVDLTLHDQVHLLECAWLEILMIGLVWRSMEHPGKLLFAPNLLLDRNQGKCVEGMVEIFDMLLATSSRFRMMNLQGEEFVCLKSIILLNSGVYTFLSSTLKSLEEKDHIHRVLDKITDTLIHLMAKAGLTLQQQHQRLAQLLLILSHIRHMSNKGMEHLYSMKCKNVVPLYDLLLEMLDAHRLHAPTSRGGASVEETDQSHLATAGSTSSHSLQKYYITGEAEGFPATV
Assay type: cell-based
Method in brief: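 MCF7-derived MVLN cells carrying an ER-driven luciferase reporter; test compounds applied with estradiol, and anti-oestrogenic action scored as inhibition of the estradiol-induced luciferase signal.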

| pIC50 | SMILES |
| --- | --- |
| 7.96 | [O-][S+](CCCN(CCO)CCCCCCC1=C(c2ccccc2)CCCc2cc(O)ccc21)CCC(F)(F)F (racemic) [Example 78, 9-{6-[(2-Hydroxyethyl){3-[(RS)-(3,3,3-trifluoropropyl)sulphinyl]propyl}amino]hexyl}-8-phenyl-6,7-dihydro-5H-benzo[7]annulen-3-ol] |
| 9.00 | CCN(CCCCCCC1=C(c2cccc(O)c2)CCCc2cc(O)ccc21)CCC[S+]([O-])CCCC(F)(F)C(F)(F)F (racemic) [Example 86, 9-[6-(Ethyl{3-[(RS)-(4,4,5,5,5-pentafluoropentyl)sulphinyl]propyl}amino)hexyl]-8-(3-hydroxyphenyl)-6,7-dihydro-5H-benzo[7]annulen-3-ol] |
| 8.70 | [O-][S+](CCCN(CCO)CCCCCCC1=C(c2ccccc2)CCCc2cc(O)ccc21)CCCC(F)(F)C(F)(F)F (racemic) [Example 70, 9-{6-[(2-Hydroxyethyl){3-[(RS)-(4,4,5,5,5-pentafluoropentyl)sulphinyl]propyl}amino]hexyl}-8-phenyl-6,7-dihydro-5H-benzo[7]annulen-3-ol] |
| 7.62 | CN(CCCCCC1=C(c2ccc(F)c(O)c2)CCCc2cc(O)ccc21)CCCCS(=O)(=O)CCCC(F)(F)C(F)(F)F [Example 25, 8-(4-Fluoro-3-hydroxyphenyl)-9-[5-(methyl{4-[(4,4,5,5,5-pentafluoropentyl)sulphonyl]butyl}amino)pentyl]-6,7-dihydro-5H-benzo[7]annulen-3-ol] |
| 8.05 | [O-][S+](CCCN(CCCO)CCCCCCC1=C(c2ccccc2)CCCc2cc(O)ccc21)CCC(F)(F)F (racemic) [Example 80, 9-{6-[(3-Hydroxypropyl){3-[(RS)-(3,3,3-trifluoropropyl)sulphinyl]propyl}amino]hexyl}-8-phenyl-6,7-dihydro-5H-benzo[7]annulen-3-ol] |
| 8.30 | CCN(CCCCCCC1=C(c2ccccc2)CCCc2cc(O)ccc21)CCC[S+]([O-])CCCC(F)(F)C(F)(F)F (racemic) [Example 68, 9-[6-(Ethyl{3-[(RS)-(4,4,5,5,5-pentafluoropentyl)sulphinyl]propyl}amino)hexyl]-8-phenyl-6,7-dihydro-5H-benzo[7]annulen-3-ol] |
| 7.59 | CN(CCCCCCC1=C(c2ccccc2)CCCc2c1ccc(O)c2Cl)CCCCS(=O)(=O)CCCC(F)(F)C(F)(F)F [Example 103, 4-Chloro-9-[6-(methyl{4-[(4,4,5,5,5-pentafluoropentyl)sulphonyl]butyl}amino)hexyl]-8-phenyl-6,7-dihydro-5H-benzo[7]annulen-3-ol] |
| 6.84 | CN(CCCCCC1=C(c2cccnc2)CCCc2cc(O)ccc21)CCCSCCCC(F)(F)C(F)(F)F [Example 39, 9-[5-(Methyl{3-[(4,4,5,5,5-pentafluoropentyl)sulphanyl]propyl}amino)pentyl]-8-(3-pyridyl)-6,7-dihydro-5H-benzo[7]annulen-3-ol] |
| 7.85 | CC(C)(O)CN(CCCCCCC1=C(c2ccccc2)CCCc2cc(O)ccc21)CCCS(=O)(=O)CCCC(F)(F)C(F)(F)F [Example 75, 9-{6-[(2-Hydroxy-2-methylpropyl){3-[(4,4,5,5,5-pentafluoropentyl)sulphonyl]propyl}amino]hexyl}-8-phenyl-6,7-dihydro-5H-benzo[7]annulen-3-01] |
| 8.10 | O=S(=O)(CCCN(CCCO)CCCCCCC1=C(c2cccc(O)c2)CCCc2cc(O)ccc21)CCC(F)(F)F [Example 99, 8-(3-Hydroxyphenyl)-9-{6-[(3-hydroxypropyl){3-[(3,3,3-trifluoropropyl)sulphonyl]propyl}amino]hexyl}-6,7-dihydro-5H-benzo[7]annulen-3-ol] |
| 8.22 | CN(CCCCCCC1=C(c2ccc(F)c(O)c2)CCCc2cc(O)ccc21)CCCCCS(=O)(=O)CCCC(F)(F)C(F)(F)F [Example 33, 8-(4-Fluoro-3-hydroxyphenyl)-9-[6-(methyl{5-[(4,4,5,5,5-pentafluoropentyl)sulphonyl]pentyl}amino)hexyl]-6,7-dihydro-5H-benzo[7]annulen-3-ol] |
| 8.30 | CN(CCCCCCC1=C(c2ccc(F)c(O)c2)CCCc2cc(O)ccc21)CCCCCC[S+]([O-])CCCC(F)(F)C(F)(F)F (racemic) [Example 34, 8-(4-Fluoro-3-hydroxyphenyl)-9-[6-(methyl{6-[(RS)-(4,4,5,5,5-pentafluoropentyl)sulphinyl]hexyl}amino)hexyl]-6,7-dihydro-5H-benzo[7]annulen-3-ol] |
| 8.10 | CN(CCCCCCC1=C(c2cccnc2)CCCc2cc(O)ccc21)CCC[S+]([O-])CCCC(F)(F)C(F)(F)F (racemic) [Example 43, 9-[6-(Methyl{3-[(RS)-(4,4,5,5,5-pentafluoropentyl)sulphinyl]propyl}amino)hexyl]-8-(3-pyridyl)-6,7-dihydro-5H-benzo[7]annulen-3-ol] |
| 8.70 | CN(CCCCCCC1=C(c2cccc(O)c2)CCCc2cc(O)ccc21)CCCS(=O)(=O)CCC(F)(F)C(F)(F)F [Example 54, 8-(3-Hydroxyphenyl)-9-[6-(methyl{3-[(3,3,4,4,4-pentafluorobutyl)sulphonyl]propyl}amino)hexyl]-6,7-dihydro-5H-benzo[7]annulen-3-ol] |
| 8.52 | COCCCN(CCCCCCC1=C(c2cccc(O)c2)CCCc2cc(O)ccc21)CCCS(=O)(=O)CCCC(F)(F)C(F)(F)F [Example 107, 8-(3-Hydroxyphenyl)-9-{6-[(3-methoxypropyl){3-[(4,4,5,5,5-pentafluoropentyl)sulphonyl]propyl}amino]hexyl}-6,7-dihydro-5H-benzo[7]annulen-3-ol] |
| 8.70 | CN(CCCCCC[S+]([O-])CCCC(F)(F)C(F)(F)F)CCCCCC1=C(c2cccc(O)c2)CCCc2cc(O)ccc21 (racemic) [Example 10, 8-(3-Hydroxyphenyl)-9-[5-(methyl{6-[(RS)-(4,4,5,5,5-pentafluoropentyl)sulphinyl]hexyl}amino)pentyl]-6,7-dihydro-5H-benzo[7]annulen-3-ol] |
| 7.21 | CCN(CCCCCCC1=C(c2ccccc2)CCCc2cc(O)ccc21)CCCS(=O)(=O)CCC(F)(F)F [Example 77, 9-[6-(Ethyl{3-[(3,3,3-trifluoropropyl)sulphonyl]propyl}amino)hexyl]-8-phenyl-6,7-dihydro-5H-benzo[7]annulen-3-ol] |
| 8.30 | CN(CCCCCCC1=C(c2ccc(F)c(O)c2)CCCc2cc(O)c(F)cc21)CCC[S+]([O-])CCCC(F)(F)C(F)(F)F (racemic) [Example 130, 2-Fluoro-8-(4-fluoro-3-hydroxyphenyl)-9-[6-(methyl{3-[(RS)-(4,4,5,5,5-pentafluoropentyl)sulphinyl]propyl}amino)hexyl]-6,7-dihydro-5H-benzo[7]annulen-3-ol] |
| 8.70 | CN(CCCCCCC1=C(c2cccc(O)c2)CCCc2cc(O)ccc21)CCC[S+]([O-])CCC(F)(F)F (racemic) [Example 55, 8-(3-Hydroxyphenyl)-9-[6-(methyl{3-[(RS)-(3,3,3-trifluoropropyl)sulphinyl]propyl}amino)hexyl]-6,7-dihydro-5H-benzo[7]annulen-3-ol] |
| 8.15 | CN(CCCCCCC1=C(c2cccnc2)CCCc2cc(O)ccc21)CCCSCCCC(F)(F)C(F)(F)F [Example 42, 9-[6-(Methyl{3-[(4,4,5,5,5-pentafluoropentyl)sulphanyl]propyl}amino)hexyl]-8-(3-pyridyl)-6,7-dihydro-5H-benzo[7]annulen-3-ol] |
| 7.19 | CN(CCCCCC1=C(c2ccc(S(C)(=O)=O)cc2)CCCc2cc(O)ccc21)CCCSCCCC(F)(F)C(F)(F)F [Example 45, 8-(4-Mesylphenyl)-9-[5-(methyl{3-[(4,4,5,5,5-pentafluoropentyl)sulphanyl]propyl}amino)pentyl]-6,7-dihydro-5H-benzo[7]annulen-3-ol] |
| 8.70 | CCN(CCCCCCC1=C(c2cccc(O)c2)CCCc2cc(O)ccc21)CCCS(=O)(=O)CCCC(F)(F)C(F)(F)F [Example 90, 9-[6-(Ethyl{3-[(4,4,5,5,5-pentafluoropentyl)sulphonyl]propyl}amino)hexyl]-8-(3-hydroxyphenyl)-6,7-dihydro-5H-benzo[7]annulen-3-ol] |
| 7.92 | CN(CCCCCCC1=C(c2ccccc2)CCCc2cc(O)ccc21)CCCS(=O)(=O)CCC(F)(F)C(F)(F)F [Example 62, 9-[6-(Methyl{3-[(3,3,4,4,4-pentafluorobutyl)sulphonyl]propyl}amino)hexyl]-8-phenyl-6,7-dihydro-5H-benzo[7]annulen-3-ol] |
